From US4048334A, “Active derivatives of methylamino in therapeutic compositions and methods of use” (priority 1974, dated 1977)
“Also recorded” adds a separate entry of the source.

Experiments:
[1] = tested on: reserpine-induced and neuroleptic-induced catatonia and catalepsy; experiment: Central noradrenergic and dopaminergic properties (general statement); conditions: in vivo
Text: These latter properties manifest themselves by an inhibitory action on reserpine-induced and neuroleptic-induced catatonia and catalepsy.

Emetic action = type: in vivo; conditions: dog, any dose
Text: Furthermore, the compounds of the invention have no emetic action in the dog at any doses and are not cholinolytic agents.

[2] = tested on: peripheral noradrenergic phenomena (arterial pressure, nictitating membrane); experiment: Influence on peripheral noradrenergic phenomena (norepinephrine, arterial pressure and nictitating membrane)
[3] = tested on: reserpine-induced catatonia; experiment: Inhibition of reserpine-induced catatonia; type: in vivo, rat (male, OFA strain)
Method: 1. Inhibition of reserpine-induced catatonia
After sufficient doses of reserpine have been administered to the rat, a series of symptoms occur, more particularly ptosis, catatonia and a drop in central temperature. These symptoms are caused by the depletion of the intragranular reserve pool of boigenetic amines at the synaptic terminals.
An oral dose of the compound to be studied in aqueous solution was administered to batches of 10 male rats of the OFA strain weighing about 150 to 200 g. Thirty minutes later a dose of 5 mg/kg of reserpine was given by intraperitoneal route. Three hours after the injection of reserpine, the animals were suspended by the four paws to a horizontally stretched wire fixed at 15 cm from the ground. The catatonic animals were those which maintained the position so given for at least 30 seconds. […] The maximum score was therefore 10 per batch. An identical trial was undertaken with control animals which received reserpine but none of the compounds being studied.

electrocardiogram = experiment: Effect on the electrocardiogram; type: in vivo; conditions: dog, in vivo; listed as preferred compound of the invention
[4] = tested on: tremorine-induced cholinergic effects; experiment: Anti-tremorine test (cholinolytic properties in vivo); set-up: species or system mice (male, OF1 strain); key to peripheral cholinergic effects score (salivation, sweating, weeping): 0: no action; 1: slight action; 2: average action; 3: strong action; 4: very strong action
Method: For this purpose, the following test was performed with a view to determining the anti-tremorine properties of Compound 1.
When injected into mice, tremorine produces peripheral effects i.e. weeping, sweating, salivation and diarrhoea and central effects i.e. tremor and akinesia. Such effects are due to an increase in the amount of intracerebral acetylcholine and serotonine.
Male mice of the OF1 strain weighing about 22 g were divided into batches of 10. […] Thirty minutes later a dose of 10 mg/kg of tremorine was injected by intraperitoneal route and, at different times after this injection, note was taken of the cholinergic effects on each animal in accordance with the following scale: […]

[5] = Spasmolytic / cholinolytic (anticholinergic) activity in vivo or unspecified; conditions: at antiparkinsonian doses well below the toxic dose
[6] = tested on: neuroleptic-induced catatonia; experiment: Suppression of neuroleptic-induced catatonia (curative treatment, prochlorperazine); type: in vivo, rat (male, OFA strain); conditions: for catatonia score (5 rats per batch): 5 mg/kg oral
Method: b. Suppression of neuroleptic-induced catatonia
Batches of 5 male rats of the OFA strain were given 12.5 mg/kg of prochlorperazine by intraperitoneal route. Fifty-five minutes later, an oral dose in aqueous solution of the compound to be studied was administered to all the animals with the exception of the control group. The progress of the catatonia was noted following the same scale as that used in the tests described above.

catalepsy = experiment: Inhibition of catalepsy (crossing of homolateral paws, prochlorperazine); type: in vivo, rat; conditions: 5 mg/kg oral, 30 min before prochlorperazine i.p., 3 hours after
Method: Additional trials were carried out on rats with Compound 1 and amantadine. These trials involved catalepsy as evidenced by the crossing of the animals' homolateral paws.

in vivo = conditions: mouse, mice, oral, aqueous solution, 10 days observation
[7] = tested on: neuroleptic-induced catatonia; experiment: Inhibition of neuroleptic-induced catatonia (prochlorperazine); type: in vivo, rat (male, OFA strain)
Method: 2. Inhibition of neuroleptic-induced catatonia
The blocking of dopaminergic receptors by neuroleptics in the extra-pyramidal system induces catatonia in the rat. Catatonia is differentiated from sedative properties by means of the test used hereabove for reserpine-induced catatonia. The same system of scoring was also employed in the present case.
An oral dose of the compound to be studied in aqueous solution was administered to batches of 10 male rats of the OFA strain weighing about 150 to 200 g. […] Three hours after the injection of this latter compound, catatonia was measured. An identical trial was also carried out with control animals which received prochlorperazine but none of the compounds under study.
The scoring system, used was that given hereabove in Table I.

[8] = tested on: reserpine-induced catatonia; experiment: Suppression of reserpine-induced catatonia (curative treatment); type: in vivo, rat (male, OFA strain); set-up: key to catatonia score (maximum 5 per batch): number of animals (of 5) still in catatonia; max 5 per batch
Method: a. Suppression of reserpine-induced catatonia
Batches of 5 male rats of the OFA strain, weighing 150 to 200 g were given 5 mg/kg of reserpine by intraperitoneal route. One hour and 45 minutes later, namely when the animals were in a state of catatonia, an aqueous dose of the compound to be studied was administered by oral route to all the animals with the exception of the control group.
The progress of the catatonia was then noted following the scale used in the tests described hereabove.
The maximum score was thus 5 per batch which means that all the animals of the batch were considered to be still in a state of catatonia.

For `CCCC(N)(CCC)CCC` [Compound 1], the degree of activity [1] was “marked degree of activity”, the emetic action (Emetic action) was “devoid of emetic properties” and the “Contractile reaction of the nictitating membrane with electric stimulation” value (“Contractile reaction … with electric stimulation” for short) ([2]; cumulative dose 0.1 mg/kg i.v.) was 15 mm. For the same compound, the “Contractile reaction of the nictitating membrane without electric stimulation” value ([2]; cumulative dose 0.1 mg/kg i.v.) was 0 mm, the “Increase in arterial pressure after injection of norepinephrine” value (shortened to “Increase in arterial pressure”) ([2]; cumulative dose 0.1 mg/kg i.v.) was 18 mm Hg and the “Contractile reaction … with electric stimulation” value ([2]; cumulative dose 1 mg/kg i.v.) was 16 mm. The “Contractile reaction of the nictitating membrane without electric stimulation” value ([2]; cumulative dose 1 mg/kg i.v.) was 0 mm, the “Increase in arterial pressure” value ([2]; cumulative dose 1 mg/kg i.v.) was 25 mm Hg and the “Contractile reaction … with electric stimulation” value ([2]; cumulative dose 3 mg/kg i.v.) was 17 mm. For the same compound, the “Contractile reaction of the nictitating membrane without electric stimulation” value ([2]; cumulative dose 3 mg/kg i.v.) was 0 mm, the “Increase in arterial pressure” value ([2]; cumulative dose 3 mg/kg i.v.) was 29 mm Hg and the “Contractile reaction … with electric stimulation” value ([2]; cumulative dose 5 mg/kg i.v.) was 16 mm. The “Contractile reaction of the nictitating membrane without electric stimulation” value ([2]; cumulative dose 5 mg/kg i.v.) was 0 mm, the “Increase in arterial pressure” value ([2]; cumulative dose 5 mg/kg i.v.) was 25 mm Hg and the “Contractile reaction … with electric stimulation” value ([2]; cumulative dose 10 mg/kg i.v.) was 12 mm. The “Contractile reaction of the nictitating membrane without electric stimulation” value ([2]; cumulative dose 10 mg/kg i.v.) was 0 mm, the “Increase in arterial pressure” value ([2]; cumulative dose 10 mg/kg i.v.) was 22 mm Hg and the ganglioplegic action ([2]; in vivo) was “is not a ganglioplegic agent”. The “potentiation of (peripheral) effects of norepinephrine” value ([2]; in vivo) was “does not potentiate the effects either of exogenous norepinephrine or of endogenous norepinephrine”, the “potentiation of (peripheral) effects of norepinephrine” value ([2]; in vivo, listed as preferred compound of the invention) was “does not potentiate the peripheral effects of norepinephrine” and the “Inhibition of reserpine-induced catatonia” value ([3]; 5 mg/kg oral, 30 min before reserpine 5 mg/kg i.p.) was 4 (100% inhibition of catatonia in comparison with the controls (namely a score of 0 per studied batch)). The “activity (dose) compared with amantadine, reserpine-induced catatonia” value ([3]; versus amantadine) was “as active as amantadine but at a dose which is twenty times inferior to that of amantadine”, the “effect on the electrocardiogram” value (electrocardiogram) was “does not cause any undesirable effect on the electrocardiogram; also recorded: devoid of emetic properties and of undesirable side-effects on the electrocardiogram” and the “peripheral cholinergic effects score (salivation, sweating, weeping)” value ([4]; 5 mg/kg oral, 20, 30 and 40 minutes after tremorine 10 mg/kg i.p.) was 4. The “central cholinergic effects (normal and provoked tremor)” value ([4]; 5 mg/kg oral, identical to the peripheral score (4)) was “Identical results”, the antitremorine properties ([4]; mouse, in vivo) was “devoid of antitremorine properties” and the “spasmolytic activity in vivo” value [5] was “non-existent”. For the same compound, the “catatonia score (5 rats per batch)” value ([6]; 1h30 after prochlorperazine) was 3, the “catatonia score (5 rats per batch)” value ([6]; 2h30 after prochlorperazine) was 0 and the “catatonia score (5 rats per batch)” value ([6]; 3h30 after prochlorperazine) was 0. For the same compound, the “catatonia score (5 rats per batch)” value ([6]; 3h after prochlorperazine) was 0, the “catatonia score (5 rats per batch)” value ([6]; 4h after prochlorperazine) was 0 and the “catatonia score (5 rats per batch)” value ([6]; 5h after prochlorperazine) was 0. For the same compound, the “rapidity of action against neuroleptic-induced catatonia” value ([6]; 5 mg/kg versus amantadine 80 mg/kg) was “acts against neuroleptic-induced catatonia more rapidly than does a dose of 80 mg/kg of amantadine”, the “times more active than amantadine, neuroleptic-induced catatonia, curative treatment” value ([6]; versus amantadine) was “at least 16 times” and the “inhibition of the catalepsy” value (catalepsy) was “complete inhibition of the catalepsy”. For the same compound, the LD50 at 240 h (in vivo) was 100 mg/kg, the “Inhibition of the neuroleptic-induced catatonia” value ([7]; 1 mg/kg) was 70% and the “Inhibition of the neuroleptic-induced catatonia” value ([7]; 5 mg/kg oral, 30 min before prochlorperazine 12.5 mg/kg i.p.) was 4 (100% inhibition of catatonia in comparison with the controls (namely a score of 0 per studied batch)). The “activity compared with amantadine, neuroleptic-induced catatonia” value ([7]; versus amantadine) was “twenty times more active than amantadine”, the “catatonia score (maximum 5 per batch)” value ([8]; 2.5 mg/kg oral, 2h15 after reserpine) was 3 and the “catatonia score (maximum 5 per batch)” value ([8]; 2.5 mg/kg oral, 2h30 after reserpine) was 2. For the same compound, the “catatonia score (maximum 5 per batch)” value ([8]; 2.5 mg/kg oral, 3h30 after reserpine) was 0, the “catatonia score (maximum 5 per batch)” value ([8]; 2.5 mg/kg oral, 2h after reserpine) was 4 and the “catatonia score (maximum 5 per batch)” value ([8]; 2.5 mg/kg oral, 3h after reserpine) was 0. The “catatonia score (maximum 5 per batch)” value ([8]; 2.5 mg/kg oral, 4h after reserpine) was 0, the “catatonia score (maximum 5 per batch)” value ([8]; 2.5 mg/kg oral, 5h after reserpine) was 0 and the “catatonia score (maximum 5 per batch)” value ([8]; 5 mg/kg oral, 2h15 after reserpine) was 1. For the same compound, the “catatonia score (maximum 5 per batch)” value ([8]; 5 mg/kg oral, 2h30 after reserpine) was 0, the “catatonia score (maximum 5 per batch)” value ([8]; 5 mg/kg oral, 3h30 after reserpine) was 0 and the “catatonia score (maximum 5 per batch)” value ([8]; 5 mg/kg oral, 2h after reserpine) was 5. The “catatonia score (maximum 5 per batch)” value ([8]; 5 mg/kg oral, 3h after reserpine) was 0, the “catatonia score (maximum 5 per batch)” value ([8]; 5 mg/kg oral, 4h after reserpine) was 0 and the “catatonia score (maximum 5 per batch)” value ([8]; 5 mg/kg oral, 5h after reserpine) was 0. For the same compound, the “rapidity of suppression of reserpine-induced catatonia” value ([8]; 2.5 and 5 mg/kg oral versus amantadine 80 mg/kg) was “suppresses reserpine-induced catatonia more rapidly than a dose of 80 mg/kg of amantadine” and the “times more active than amantadine, reserpine-induced catatonia, curative treatment” value ([8]; versus amantadine) was “at least 32 times”.
